Data as given in patent US20130005720A1, “PHARMACEUTICAL COMPOSITION FOR TREATING CANCER AND APPLICATIONS THEREOF” (Academia Sinica, priority 2011, published 2013).

Columns and labels:
[1] = tested on: d(TTAGGG)4 (HT24), G4 structure of human telomere; experiment: CD thermal melting curve (265 nm) of HT24 G4 structure; format: binding
Method: (§1) All oligonucleotides were purchased from Bio Basic Inc. and used without further purification, including the single strand sequence derived from telomere of human chromosome, d(TTAGGG)4 (HT24) (SEQ ID NO: 1). Solutions of 10 mM Tris-HCl (pH 7.5) and its mixed solutions with KCl were mixed with each DNA sample and heated to 95° C. for 10 min first, cooled slowly to room temperature, and then stored for 48 h at 4° C. before use.
(§2) J-815 spectropolarimeter (Jasco, Japan) with a 2 nm bandwidth at a 50 nm/min scan speed and a 0.2 nm step resolution was used to obtain CD spectra, and the following data was provided as an average of 10 scan results. The CD spectra were measured by monitoring the G4 structures under N2 over the range of 210 nm to 350 nm, and the thermal melting curves, as a function of temperature, were obtained by monitoring the CD intensity at 265 nm. Three independently scans were recorded for each sample. The melting temperature (Tm) was measured from the first differentiation of the melting curve.
The BMVC-8C3O of the present invention can not only induce the formation of G4 structures, but also stabilize G4 structures. FIGS. 3A and 3B show the CD spectra of HT24 and its complex with 5 eq. BMVC-8C3O in 5 mM K^+ solution at 25° C. and 95° C., respectively. […] BMVC-8C3O in 5 mM or 150 mM K^+ solution at 265 nm, as a function graph of temperature. After adding 5 eq. BMVC-8C3O at 37° C.

[2] = tested on: d(TTAGGG)4 (HT24), G4 structure of human telomere; experiment: CD and 1H NMR spectra: conversion of G4 structure conformation of HT24 in K+ or Na+ solution; format: binding; details: for formation of G4 structures and conversion of G4 structures of human telomeres from nonparallel to parallel forms: K+ solution, summary statement; for CD spectral change before and after annealing: 5 μM HT24, 1 eq. compound
Method: as §1
It is well-known that the linear parallel G4 structures, such as a propeller form, give a positive band at around 265 nm and a negative band at around 240 nm, while the anti-parallel G4 structures, such as a basket or chair form, show two positive bands at around 295 nm and 240 nm and a negative band at around 265 nm. In addition, the hybrid type G4 structures (3+1, including 3 parallel and 1 anti-parallel G4 structures) give a positive CD band at around 290 nm and a positive shoulder band at around 265 nm. The anti-parallel and hybrid type are both so-called “non-parallel” G4 structures. These spectral features are mainly attributed to the specific guanine stacking in various G4 structures.
as §2
5 μM HT24 and 1 eq. BMVC-8C3O (the equivalence ratio of HT24:BMVC-8C30 is 1:1) were used to detect whether BMVC-8C3O could convert the G4 structure conformation of HT24 from non-parallel to parallel.
The CD spectra of the HT24 and its complexes with 1 eq. BMVC-8C3O mixed in a 150 mM K^+ solution or in a 150 mM Na^+ solution were measured right after the mixing step under room temperature, as shown in FIGS. 2A and 2B (+BMVC-8C3O×1). Another set of spectra were obtained after these samples were annealed, i.e. heated at 95° C., and then gradually cooled down to room temperature (+BMVC-8C3O×1 anneal). […] These spectral features are consistent with the spectral changes of d[G3(T2AG3)3] (HT21) in K^+ or Na^+ solution upon the addition of 40% PEG (see Xue et al., 2007). That is to say, the peak at 265 nm (parallel G4 structure) increases and the peak at 290 nm (non-parallel G4 structure) decreases. This is, BMVC-8C3O and 40% PEG can converse the G4 structures from the non-parallel to the parallel.
BMVC-8C3O at 37° C., as a function of time.
In addition, 0.1 mM HT24 was mixed with 5 eq. BMVC-8C3O and dissolved in a H2O/D2O (90%/10%) solution containing 10 mM tris-HCl (pH 7.5) and 150 mM KCl to prepare samples for NMR (control sample was without BMVC-8C3O). Then the imino protons in the chemical shift range of 9-14 ppm were measured on a Bruker AVIII 800 MHz spectrometer using a pulsed-gradient spin-echo sequence with a selective refocusing pulse, and the chemical shift was measured relative to a D2O solution of DSS as an external reference. […] The NMR spectra show significant changes after adding 5 eq.
When 1 eq. […] However, when the concentration of BMVC-8C3O is increasing, the necessity of the annealing step decreases. For example, 5 eq. BMVC-8C3O induces spectra changes of the complex of HT24 and BMVC-8C3O in 150 mM K^+ solution at 37° C. (converting from non-parallel to parallel), and the annealing step is not necessary (see FIG. 2C).

[3] = tested on: d(TTAGGG)4 (HT24), single strand sequence derived from telomere of human chromosome; experiment: CD spectra: induction of G4 structure formation of HT24 under a salt-deficient condition; format: binding; details: 20 μM HT24, salt-deficient condition, room temperature, HT24:BMVC-8C3O 1:0 to 1:10
Method: as §1
First, circular dichroism spectroscopy (CD spectra) was used to examine whether BMVC-8C3O could induce the formation of G4 structure of human telomere, HT24, under a salt-deficient condition (Chang et al., 2007; Bugaut et al., 2008; Giraldo et al., 1994). […]
as §2, with “curve. […]” for “curve.”

CL1-0 lung cancer cells = experiment: Long-term cell proliferation curve, CL1-0 cancer cells; format: cell-based; details: long-term treated with 1.0 μM
Method: (§3) CL1-0 lung cancer cells and MRC-5 normal human lung fibroblasts were used in the following experiments, wherein CL1-0 cells were cultured in RPMI-1640 medium containing 10% FBS (fetal bovine serum) and 1% antibiotics (including penicillin and streptomycin), and MRC-5 cells were cultured in MEM medium containing 10% FBS and 1% antibiotics.
(§4) When these cells were subcultured, culture medium containing 1.0 μM BMVC-8C3O (1% DMSO for the control) was used to separate these cells into 5×10^5 cells/petri dish having a diameter of 6 cm. After 2 or 3 days, these cells were trypsinized and counted, and subcultured again with the same density and method. Cells were subcultured repeatedly until the total cell number was less than 5×10^5.
(§5) FIGS. 4A and 4B show the cell proliferation curves of CL1-0 cancer cells and MRC-5 normal cells that long-term treated with 1.0 μM BMVC-8C3O. From FIG. 4A, it is obvious that the proliferation of CL1-0 cancer cells is slowed from around day 10, and stopped at around day 20.

[4] = tested on: MRC-5 normal human lung fibroblasts; experiment: Long-term cell proliferation curve, MRC-5 normal cells; format: cell-based; details: long-term treated with 1.0 μM
Method: as §3, §4, §5

| Compound | increase of the melting temperature of the G4 structures of human telomeres ([1]; summary statement, conditions not given at the place) | formation of G4 structures and conversion of G4 structures of human telomeres from nonparallel to parallel forms [2] | induction of G4 structure formation of HT24 (CD spectra) [3] | day at which proliferation of CL1-0 cancer cells is stopped (CL1-0 lung cancer cells) | day from which proliferation of CL1-0 cancer cells is slowed (CL1-0 lung cancer cells) | enhancement of melting temperature (Tm) of HT24 ([1]; 5 eq. compound, 37° C. 24 hours, 5 mM K+ solution) | melting temperature (Tm) of HT24 complex ([1]; 5 eq. compound, 37° C. 24 hours, 5 mM K+ solution, HT24 alone approximately 41° C.) | CD spectral change before and after annealing ([2]; 150 mM K+ solution) | CD spectral change before and after annealing ([2]; 150 mM Na+ solution) | structural change of HT24 (imino proton 1H NMR spectra) ([2]; 0.1 mM HT24, 5 eq. compound, 150 mM KCl, 2 h and 12 h after adding) | conversion of G4 structure conformation of HT24 from non-parallel to parallel (CD spectra) ([2]; 5 eq. compound, 150 mM K+ solution, 37° C., without annealing) | effect on proliferation of MRC-5 normal cells [4] |
| --- | --- | --- | --- | --- | --- | --- | --- | --- | --- | --- | --- | --- |
| C[n+]1ccc(C=Cc2ccc3[nH]c4ccc(C=Cc5cc[n+](C)cc5)cc4c3c2)cc1.[I-].[I-] [BMVC, 3,6-bis(1-methyl-4-vinylpyridinium)carbazole diiodide, reference compound] | approximately 20 °C | cannot be achieved | – | – | – | – | – | – | – | – | – | – |
| C[n+]1ccc(C=Cc2ccc3c(c2)c2cc(C=Cc4cc[n+](C)cc4)ccc2n3CCOCCOCCOCC[N+]2(C)CCCCC2)cc1.[I-].[I-].[I-] [BMVC-8C3O, 3,6-Bis(1-methyl-4-vinylpyridium iodide)-9-(1-(1-methyl-piperidinium iodide)-3,6,9-trioxaundecane) carbazole] | – | can induce the formation of G4 structures and convert the G4 structures of human telomeres from nonparallel to parallel forms | can induce G4 formation under a salt-deficient condition | ~20 days | ~10 days | about 50 °C | > 90 °C | significant spectral changes | only CD intensity changes are observed | can induce the structural change of HT24 | can convert the conformation of G4 structures from non-parallel to parallel | does not significantly affect |
